Measurements from patent US9029389B2 (Institut Pasteur Korea, priority 2011, dated 2015).

Target: T1, Human 5-lipoxygenase (Homo sapiens, UniProt P09917)
T1 construct: purchased Cayman 60402; host or cells: insect cells
T1 sequence (P09917 1-674): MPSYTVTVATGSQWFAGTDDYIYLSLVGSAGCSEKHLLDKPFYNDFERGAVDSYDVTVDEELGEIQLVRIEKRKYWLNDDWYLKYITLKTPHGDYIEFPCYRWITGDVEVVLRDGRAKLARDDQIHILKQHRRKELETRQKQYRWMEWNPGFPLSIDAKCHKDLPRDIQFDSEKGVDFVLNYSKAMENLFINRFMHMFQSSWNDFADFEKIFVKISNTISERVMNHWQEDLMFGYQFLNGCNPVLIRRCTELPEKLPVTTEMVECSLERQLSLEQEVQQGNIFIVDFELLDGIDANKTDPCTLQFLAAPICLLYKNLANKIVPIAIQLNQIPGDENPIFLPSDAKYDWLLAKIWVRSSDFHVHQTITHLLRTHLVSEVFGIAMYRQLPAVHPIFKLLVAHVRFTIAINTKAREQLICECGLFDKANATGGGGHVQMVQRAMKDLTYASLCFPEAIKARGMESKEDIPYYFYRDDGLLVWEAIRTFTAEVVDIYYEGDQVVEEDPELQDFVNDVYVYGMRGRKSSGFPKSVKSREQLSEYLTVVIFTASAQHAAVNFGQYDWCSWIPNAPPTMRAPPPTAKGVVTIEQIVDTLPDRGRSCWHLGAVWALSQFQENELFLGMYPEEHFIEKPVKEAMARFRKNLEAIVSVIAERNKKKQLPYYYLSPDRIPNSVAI
Experiment: Activity of compounds against 5-LO enzyme (LTB4 measurement and/or fluorescence method)
Type: biochemical
Details: for inhibition at 10 µM: 5-LO, single concentration of 10 uM in duplicate; for IC50: 6 or 11 point dose response in duplicate
Method in brief: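 Two read-outs: LTB4 measured by EIA and/or LC/MS/MS with LTB4-d4 standard after 15 min RT compound preincubation with insect-cell 5-LO and a 5 min 37 °C reaction on 3 uM arachidonic acid (0.1 mM ATP, pH 7.4). The room-temperature fluorescence format used 20 uM H2DCFDA, 100 uM ATP, 3 uM arachidonic acid, 5 min; IC50 from 6/11-point curves.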

Row | SMILES | inhibition at 10 µM [%] | IC50 [µM]
1 | CCc1nc2ccc(Cl)cn2c1C(=O)NCc1ccc2ccccc2c1 [compound 79, 6-Chloro-2-ethyl-N-(naphthalen-2-ylmethyl)imidazo[1,2-a]pyridine-3-carboxamide] | < 40 | –
2 | Cc1nc2ccccn2c1C(=O)NCc1ccc2[nH]ccc2c1 [compound 21, N-((1H-Indol-5-yl)methyl)-2-methylimidazo[1,2-a]pyridine-3-carboxamide] | < 40 | –
3 | CCc1nc2ccc(Cl)cn2c1C(=O)NCc1ccc(Oc2ccc(OC(F)(F)F)cc2)cc1 [compound 131, 6-Chloro-2-ethyl-N-(4-(4-(trifluoromethoxy)phenoxy)benzyl)imidazo[1,2-a]pyridine-3-carboxamide] | 40 to 69 | –
4 | Cc1nc2ccc(Cl)cn2c1C(=O)NCc1ccccc1 [compound 17, N-Benzyl-6-chloro-2-methylimidazo[1,2-a]pyridine-3-carboxamide] | < 40 | –
5 | Cc1nc2ccccn2c1NC(=O)Cc1ccccc1 [compound 41, N-(2-Methylimidazo[1,2-a]pyridin-3-yl)-2-phenylacetamide] | < 40 | –
6 | CCCc1nc2ccccn2c1C(=O)NCc1ccc(-c2ccccc2)cc1 [compound 46, N-(Biphenyl-4-ylmethyl)-2-propylimidazo[1,2-a]pyridine-3-carboxamide] | 40 to 69 | –
7 | CCc1nc2cc(Cl)ccn2c1C(=O)NCc1ccc(N2CCN(C)CC2)cc1 [compound 108, 7-Chloro-2-ethyl-N-(4-(4-methylpiperazin-1-yl)benzyl)imidazo[1,2-a]pyridine-3-carboxamide] | < 40 | –
8 | CCc1nc2ccccn2c1C(=O)NCc1ccc(OC(F)(F)F)cc1 [compound 51, 2-Ethyl-N-(4-(trifluoromethoxy)benzyl)imidazo[1,2-a]pyridine-3-carboxamide] | < 40 | –
9 | CCc1nc2ccc(C(F)(F)F)cn2c1C(=O)NCc1ccc(N2CCC(Oc3ccc(OC(F)(F)F)cc3)CC2)cc1 [compound 124, 2-Ethyl-N-(4-(4-(4-(trifluoromethoxy)phenoxy)piperidin-1-yl)benzyl)-6-(trifluoromethyl)imidazo[1,2-a]pyridine-3-carboxamide] | > 69 | 1 to 20

Continued, values first:

Row | inhibition at 10 µM [%] | IC50 [µM] | SMILES
10 | – | < 1 | CCc1nc2cc(Cl)ccn2c1C(=O)N1CCC(OCc2ccc(OC(F)(F)F)cc2)CC1 [compound 393, (7-chloro-2-ethylimidazo[1,2-a]pyridin-3-yl)(4-(4-(trifluoromethoxy)benzyloxy)piperidin-1-yl)methanone]
11 | – | 1 to 20 | CCc1nc2ccc(Cl)cn2c1C(=O)N1CC[C@@H](OCc2ccc(OC(F)(F)F)cc2)C1 [compound 391, (R)-(6-chloro-2-ethylimidazo[1,2-a]pyridin-3-yl)(3-(4-(trifluoromethoxy)benzyloxy)-pyrrolidin-1-yl)methanone]
12 | < 40 | – | CCc1nc2ccc(Cl)cn2c1C(=O)NCc1ccc2oc(-c3ccc(F)cc3)nc2c1 [compound 258, 6-Chloro-2-ethyl-N-((2-(4-fluorophenyl)benzo[d]oxazol-5-yl)methyl)imidazo[1,2-a]pyridine-3-carboxamide]
13 | – | > 20 | CCc1nc2cnccn2c1C(=O)N1CCC(OCc2ccc(OC(F)(F)F)cc2)CC1 [compound 389, (2-Ethylimidazo[1,2-a]pyrazin-3-yl)(4-((4-(trifluoromethoxy)benzyl)oxy)piperidin-1-yl)methanone]
14 | < 40 | – | CCc1nc2ccc(Cl)cn2c1C(=O)NCc1ccc(N2CCC(O)(c3ccccc3)CC2)cc1 [compound 328, 6-chloro-2-ethyl-N-(4-(4-hydroxy-4-phenylpiperidin-1-yl)benzyl)imidazo[1,2-a]pyridine-3-carboxamide]
15 | 40 to 69 | – | CCc1nc2cc(Cl)ccn2c1C(=O)NCc1ccc(N2CCC(=O)CC2)cc1 [compound 200, 7-Chloro-2-ethyl-N-(4-(4-oxopiperidin-1-yl)benzyl)imidazo[1,2-a]pyridine-3-carboxamide]
